Experimental findings from ChEMBL document CHEMBL5131455 (Bioorg Med Chem Lett, 2022) are described below.

Converted amounts (≈) assume the structure as drawn.

Series [1] is described as follows: AUC in rat plasma at 30 mg/kg, po in presence of [14-C]asciminib relative to radioactivity of [14-C] AUC. In kind it is ADME, organism-based. The conditions noted are these: in vivo.
Series [2] can be described thus: Solubility of the compound in chloride free pH 6.8 phosphate buffer incubated up to 72 hrs by shake flask method. It is filed as physicochemical.
Series [3] in a line: Solubility of the compound in pH 1 0.1N HCl buffer incubated up to 72 hrs by shake flask method. In kind it is physicochemical.
For series [4], the target named is Tyrosine-protein kinase ABL1 (Homo sapiens, UniProt P00519). The experiment in a line: Inhibition of transphosphorylation of ABL1 SH1-3 domain (64 to 515 residues) (unknown origin) expressed in Escherichia coli using FITC-Ahx-EAIYAAPFAKKK-NH2) as substrate measured after 60 mins by caliper method.
In series [5] the test system is BaF3. Description: Antiproliferative activity against mouse BaF3 cells expressing BCR-ABL by ATP-luminescence assay. In kind it is functional, cell-based.
Series [6] is described as follows: Antiproliferative activity against human KBM-7 cells measured after 72 hrs by celltiter-glo luminescent cell viability assay. It is filed as functional, cell-based. A general note: In ATP-based viability assays light output follows the ATP content of the culture.
Series [7] in a line: Antiproliferative activity against human CMK-86 cells measured after 72 hrs by celltiter-glo luminescent cell viability assay. In kind it is functional, cell-based.
A short description of series [8]: Antiproliferative activity against human SNU-213 cells measured after 72 hrs by celltiter-glo luminescent cell viability assay. It is filed as functional, cell-based.
Series [9] can be described thus: Antiproliferative activity against human Fu97 cells measured after 72 hrs by celltiter-glo luminescent cell viability assay. In kind it is functional, cell-based.
For series [10], the target named is T1, Mu-type opioid receptor (Homo sapiens, UniProt P35372). Description: Displacement of [3H]morphine binding to recombinant human full-length MOR expressed in CHO-K1 cells at 30 uM measured after 60 mins by scintillation counting analysis relative to control. In kind it is cell-based.
In series [11] the target is T1, Mu-type opioid receptor. Description: Displacement of [3H]morphine binding to recombinant human full-length MOR expressed in CHO-K1 cells measured after 60 mins by scintillation counting analysis. It is filed as cell-based. In general terms: Displacement assays read how much labelled ligand stays bound in the presence of the test substance.
Series [12] deals with Voltage-gated inwardly rectifying potassium channel KCNH2 (Homo sapiens, UniProt Q12809). Description: Displacement of [3H]dofetilide from human ERG expressed in HEK293 cells measured after 45 mins by topcount scintillation counting method. It is filed as toxicity, cell-based.
Series [13] has as its target hERG (KCNH2) (Homo sapiens, UniProt Q12809). The experiment in a line: Displacement of [3H]dofetilide from human ERG expressed in HEK293 cells at 30 uM measured after 45 mins by topcount scintillation counting method relative to control. It is filed as toxicity, cell-based. The conditions noted are these: HEK293 cells that express hERG, probe [3H]dofetilide.
Series [14] can be described thus: Apparent permeability across apical to basolateral side in human Caco-2 cells. It is filed as ADME, cell-based.
Series [15] in a line: Apparent permeability across basolateral to apical side in human Caco-2 cells. In kind it is ADME, cell-based.
Series [16] can be described thus: Efflux ratio of apparent permeability across basolateral to apical side over apical to basolateral side in human Caco2 cells. In kind it is ADME, cell-based. The conditions noted are these: Caco-2. A general note: Passage across Caco-2 layers is used to estimate intestinal permeability.
Series [17] relates to MDR1. Description: Efflux ratio of apparent permeability across basolateral to apical side over apical to basolateral side in MDCK-MDR1 cells. In kind it is ADME, cell-based, Canis lupus familiaris. The conditions noted are these: dog.
Series [18] can be described thus: Apparent permeability in MDCK cells. It is filed as ADME, cell-based, Canis lupus familiaris. The conditions noted are these: dog, MDCK-MDR1.
A short description of series [19]: Intrinsic clearance in mouse liver microsomes. In kind it is ADME, Microsome. As to conditions: read-out: CLH; call rule not given here.
A short description of series [20]: Intrinsic clearance in rat liver microsomes. As to conditions: read-out: CLH. In kind it is ADME, Microsome.
Series [21] can be described thus: Intrinsic clearance in dog liver microsomes. In kind it is ADME, Canis lupus familiaris, Microsome. As to conditions: read-out: CLH.
The nature of series [22]: Intrinsic clearance in human liver microsomes. It is filed as ADME, Microsome. The conditions noted are these: read-out: CLH.
The nature of series [23]: Clearance in C57BL/6 mouse at 1 mg/kg, iv. The conditions noted are these: in vivo. It is filed as ADME, organism-based.
Series [24] is described as follows: Volume of distribution at steady state in C57BL/6 mouse at 1 mg/kg, iv. It is filed as ADME, organism-based. The conditions noted are these: in vivo, read-out: Vdss.
The nature of series [25]: Half life in C57BL/6 mouse at 1 mg/kg, iv. It is filed as ADME, organism-based. The conditions noted are these: in vivo.
Series [26] in a line: Dose normalized AUC (infinity) in C57BL/6 mouse at 1 mg/kg, iv. In kind it is ADME, organism-based. The conditions noted are these: in vivo.
The nature of series [27]: Dose normalized AUC (infinity) in C57BL/6 mouse brain at 10 mg/kg, ip measured up to 4 hrs. In kind it is ADME, organism-based. The conditions noted are these: in vivo.
Series [28] in a line: Tmax in C57BL/6 mouse at 30 mg/kg, ip. It is filed as ADME, organism-based. The conditions noted are these: in vivo.
Series [29] can be described thus: Dose normalized Cmax in C57BL/6 mouse at 30 mg/kg, ip. As to conditions: in vivo. It is filed as ADME, organism-based.
The nature of series [30]: Dose normalized AUC (infinity) in C57BL/6 mouse blood at 30 mg/kg, ip. It is filed as ADME, organism-based. The conditions noted are these: in vivo.
Series [31] is described as follows: Dose normalized AUC (infinity) in C57BL/6 mouse brain at 30 mg/kg, ip. In kind it is ADME, organism-based. As to conditions: in vivo.
Series [32] can be described thus: Unbound brain to plasma concentration ratio in C57BL/6 mouse brain at 30 mg/kg, ip. It is filed as ADME, organism-based. The conditions noted are these: brain and plasma, read-out: K(p,uu,brain).
The nature of series [33]: Tmax in C57BL/6 mouse at 30 mg/kg, po. It is filed as ADME, organism-based. As to conditions: in vivo.
Series [34] can be described thus: Dose normalized Cmax in C57BL/6 mouse at 30 mg/kg, po. It is filed as ADME, organism-based. As to conditions: in vivo.
Series [35] can be described thus: Dose normalized AUC (infinity) in C57BL/6 mouse blood at 30 mg/kg, po. In kind it is ADME, organism-based. The conditions noted are these: in vivo.
Series [36] is described as follows: Ratio of drug level in C57BL/6 mouse blood to brain at 1 mg/kg, iv measured after 5 mins. In kind it is ADME, organism-based. The conditions noted are these: in vivo.
A short description of series [37]: Ratio of drug level in C57BL/6 mouse blood to brain at 10 mg/kg, ip measured at 4 hrs. In kind it is ADME, organism-based. As to conditions: in vivo.
Series [38] can be described thus: Ratio of drug level in C57BL/6 mouse blood to brain at 30 mg/kg, ip measured at 4 hrs. As to conditions: in vivo. It is filed as ADME, organism-based.
A short description of series [39]: Drug level in C57BL/6 mouse brain at 30 mg/kg, ip measured at 4 hrs. It is filed as ADME, organism-based. The conditions noted are these: read-out: Drug uptake.
The nature of series [40]: Ratio of drug level in C57BL/6 mouse brain at 30 mg/kg, ip to IC50 for antiproliferative activity against mouse BaF3 cells expressing BCR-ABL by ATP-luminescence assay. As to conditions: in vivo. It is filed as organism-based.
A short description of series [41]: Drug uptake in male rat central nervous system at 30 mg/kg, po. The conditions noted are these: in vivo, BLD = below limit of detection. In kind it is ADME, organism-based.
The nature of series [42]: Drug uptake in female rat central nervous system at 30 mg/kg, po. It is filed as ADME, organism-based. The conditions noted are these: in vivo.
The nature of series [43]: AUC (0 to 8 hrs) in rat plasma at 30 mg/kg, po relative to radioactivity of 14-C AUC. It is filed as ADME, organism-based. As to conditions: in vivo.
Series [44] in a line: AUC (0 to 8 hrs) in human plasma at 80 mg, po qd administered as water suspension by HPLC analysis relative to radioactivity of 14-C AUC. It is filed as ADME, organism-based. The conditions noted are these: in vivo.

T1 sequence (P35372 whole entry): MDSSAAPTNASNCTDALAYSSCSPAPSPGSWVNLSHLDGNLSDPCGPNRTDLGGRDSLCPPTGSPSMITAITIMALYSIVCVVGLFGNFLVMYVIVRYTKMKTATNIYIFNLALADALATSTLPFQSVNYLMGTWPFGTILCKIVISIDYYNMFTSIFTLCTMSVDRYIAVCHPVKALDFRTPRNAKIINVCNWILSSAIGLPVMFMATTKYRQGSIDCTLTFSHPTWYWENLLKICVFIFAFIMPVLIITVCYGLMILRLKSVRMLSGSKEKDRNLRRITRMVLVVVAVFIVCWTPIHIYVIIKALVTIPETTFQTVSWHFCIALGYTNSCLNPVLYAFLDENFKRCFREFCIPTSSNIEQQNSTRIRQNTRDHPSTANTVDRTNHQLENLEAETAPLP
Voltage-gated inwardly rectifying potassium channel KCNH2, sequence (Q12809 whole entry): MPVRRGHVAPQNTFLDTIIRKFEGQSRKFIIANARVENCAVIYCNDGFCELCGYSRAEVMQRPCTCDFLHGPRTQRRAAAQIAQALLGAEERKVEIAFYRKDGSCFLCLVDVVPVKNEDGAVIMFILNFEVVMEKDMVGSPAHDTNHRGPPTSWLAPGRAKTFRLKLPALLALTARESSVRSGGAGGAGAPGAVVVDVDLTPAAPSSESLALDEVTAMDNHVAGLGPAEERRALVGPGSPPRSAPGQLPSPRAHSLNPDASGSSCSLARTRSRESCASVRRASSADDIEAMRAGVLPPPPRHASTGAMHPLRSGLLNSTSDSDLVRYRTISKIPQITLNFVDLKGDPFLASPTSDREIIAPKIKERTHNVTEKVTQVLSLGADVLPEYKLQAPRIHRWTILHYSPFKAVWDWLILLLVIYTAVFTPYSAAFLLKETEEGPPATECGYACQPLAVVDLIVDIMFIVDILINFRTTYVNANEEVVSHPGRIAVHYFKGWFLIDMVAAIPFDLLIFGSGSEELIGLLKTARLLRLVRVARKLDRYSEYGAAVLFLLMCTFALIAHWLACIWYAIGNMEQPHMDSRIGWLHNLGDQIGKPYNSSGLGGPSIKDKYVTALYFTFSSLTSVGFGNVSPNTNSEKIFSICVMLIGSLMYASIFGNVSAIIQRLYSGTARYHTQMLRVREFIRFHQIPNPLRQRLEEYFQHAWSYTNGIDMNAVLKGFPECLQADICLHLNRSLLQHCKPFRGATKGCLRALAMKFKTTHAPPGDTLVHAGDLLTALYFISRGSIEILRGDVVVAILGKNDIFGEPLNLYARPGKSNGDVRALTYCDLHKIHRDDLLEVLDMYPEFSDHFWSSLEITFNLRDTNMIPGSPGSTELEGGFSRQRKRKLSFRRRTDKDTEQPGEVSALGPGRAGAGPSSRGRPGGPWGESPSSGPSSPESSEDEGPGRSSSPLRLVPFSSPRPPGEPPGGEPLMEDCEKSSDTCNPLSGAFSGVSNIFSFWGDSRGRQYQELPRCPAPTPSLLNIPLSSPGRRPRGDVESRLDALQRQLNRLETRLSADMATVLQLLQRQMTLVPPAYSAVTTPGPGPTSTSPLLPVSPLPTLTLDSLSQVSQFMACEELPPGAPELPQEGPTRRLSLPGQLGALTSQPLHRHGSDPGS
hERG (KCNH2), sequence (Q12809 whole entry): as above
Tyrosine-protein kinase ABL1, sequence (P00519 whole entry, the tested form may be a part): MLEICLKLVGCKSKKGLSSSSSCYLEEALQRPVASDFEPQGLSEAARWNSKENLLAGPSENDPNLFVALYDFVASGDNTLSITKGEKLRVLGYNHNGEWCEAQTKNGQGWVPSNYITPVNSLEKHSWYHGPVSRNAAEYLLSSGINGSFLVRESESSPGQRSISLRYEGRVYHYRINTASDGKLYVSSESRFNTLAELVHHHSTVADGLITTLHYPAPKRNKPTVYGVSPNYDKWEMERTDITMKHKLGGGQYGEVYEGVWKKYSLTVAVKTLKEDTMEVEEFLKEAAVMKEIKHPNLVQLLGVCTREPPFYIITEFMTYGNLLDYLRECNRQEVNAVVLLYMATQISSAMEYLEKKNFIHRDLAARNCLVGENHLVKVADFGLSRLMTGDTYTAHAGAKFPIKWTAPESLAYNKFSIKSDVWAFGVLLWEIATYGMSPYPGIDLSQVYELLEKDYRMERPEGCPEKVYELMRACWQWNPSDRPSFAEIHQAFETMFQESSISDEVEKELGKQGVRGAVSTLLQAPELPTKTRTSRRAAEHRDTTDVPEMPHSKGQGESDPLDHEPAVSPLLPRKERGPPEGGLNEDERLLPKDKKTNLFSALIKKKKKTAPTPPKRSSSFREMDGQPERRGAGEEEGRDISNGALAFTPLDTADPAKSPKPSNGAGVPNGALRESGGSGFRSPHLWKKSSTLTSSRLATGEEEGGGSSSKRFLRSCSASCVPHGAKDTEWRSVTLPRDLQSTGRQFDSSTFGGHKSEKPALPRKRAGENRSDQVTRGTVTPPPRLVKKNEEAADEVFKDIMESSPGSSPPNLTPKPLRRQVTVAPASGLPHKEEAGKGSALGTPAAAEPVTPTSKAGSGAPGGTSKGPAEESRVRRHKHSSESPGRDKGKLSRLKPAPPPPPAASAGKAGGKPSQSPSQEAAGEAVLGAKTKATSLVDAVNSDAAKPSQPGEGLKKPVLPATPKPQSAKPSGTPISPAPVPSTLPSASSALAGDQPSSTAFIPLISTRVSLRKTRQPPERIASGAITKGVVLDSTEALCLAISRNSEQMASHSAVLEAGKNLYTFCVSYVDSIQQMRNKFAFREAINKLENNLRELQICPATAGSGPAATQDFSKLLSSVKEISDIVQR

As to `O=C(Nc1ccc(OC(F)(F)Cl)cc1)c1cnc(NCCC(O)CO)c(-c2ccn[nH]2)c1` (stereo not drawn), the Drug uptake in series [1] amounted to 0.39%.

Consider `O=C(Nc1ccc(OC(F)(F)F)cc1)c1cncc(-c2cccnc2)c1`, for which the results for the thermodynamic solubility at 72 h in series [2] and in series [3] were 3 µg/mL (≈ 8.35 µM) and over 1500 µg/mL, respectively. Besides, the IC50 – broadly, the point on the concentration scale where inhibition reaches its midpoint – in series [4] is 33 nM; in series [5], 75 nM; in series [6] (Homo sapiens, KBM-7, 72 h), 197 nM; in series [7] (Homo sapiens, CMK-86, 72 h) it was 1600 nM; in series [8] (Homo sapiens, SNU-213, 72 h) it was 25000 nM; in series [9] (Homo sapiens, Fu97, 72 h), over 30000 nM. Also, the GI50 (usually the concentration at which growth is held to half of that of the control) in series [5] came to 69 nM. The “%max” value was 98% in series [6] (time 72 hrs), 62% in series [7] (time 72 hrs), 62% in series [8] (time 72 hrs) and 55% in [9] (time 72 hrs). In series [10], the inhibition – broadly, the change of the read-out against control, counted positive when it falls – is over 50%. The AC50 (usually the midpoint of the concentration-response curve, whichever way the signal moves) in series [11] was 9780 nM; in series [12] it was 2800 nM. This molecule registered an inhibition at 0.75 h, 30 µM in series [13] of over 50%. For the same molecule, the Papp A→B (commonly how fast a substance crosses the layer from the apical side) in [14] was 27.1 ×10⁻⁶ cm/s. In addition, the Papp B→A – broadly, how fast a substance crosses the layer from the basolateral side – in series [15] stood at 11.1 ×10⁻⁶ cm/s. The results for the efflux ratio in series [16] and in series [17] were 0.41 and 1.03, respectively. Besides, in series [18], the Papp (usually the rate of passage across a membrane or cell layer, normalised by area and donor concentration) turned out to be 24.5 ×10⁻⁶ cm/s. Further, the CLint scaled in series [19] was 31 mL/min/kg; in series [20], 56 mL/min/kg; in series [21], 30 mL/min/kg; in series [22], 16 mL/min/kg. The clearance (in general, the volume of plasma or blood freed of the substance per unit of time) in series [23] came to 17 mL/min/kg. Moreover, in [24], the Vd was determined as 1.2 L/kg. Also, the half-life (as a rule, the time in which the quantity being followed falls by half) in series [25] was 0.9 h. Also, the AUC/dose amounted to 2875 nM·h in series [26]; 15720 nM·h in [27]; 6672 nM·h in series [30]; 27926 nM·h in series [31]; 5139 nM·h in series [35]. The Tmax (usually the time at which the peak concentration occurs) in series [28] came out at 1.8 h; in [33], 1 h. For the same molecule, the Cmax/dose in [29] was found to be 0.643 µM; in series [34] it was 0.629 µM. The Kp uu in series [32] stood at 0.91. In addition, the Ratio in [36] is reported as 3.29; in [37], 2.32; in series [38], 2.65; in series [40], 465. Besides, the concentration at 4 h in series [39] came out at 34.9 µM.

For the molecule `O=C1CCN(c2ncc(C(=O)Nc3ccc(OC(F)(F)Cl)cc3)cc2-c2ccn[nH]2)C1`, the Drug uptake in series [1] worked out at 1.88%.

For the molecule `O=C(Nc1ccc(OC(F)(F)Cl)cc1)c1cnc(N2CC[C@@H](O)C2)c(-c2ccn[nH]2)c1` [ASCIMINIB], the Drug uptake entry in [41] is “Bld”; in series [42], “Active”; in series [43] it was 86%; in [44], 92.7%. In addition, the figures for the solubility (thermodynamic) at 72 h in series [2] and in [3] were 4 µg/mL (≈ 8.89 µM) and over 1500 µg/mL, respectively. For the same molecule, the Papp in [18] was found to be 21.1 ×10⁻⁶ cm/s.
